Results on 19 compounds are retold here after patent US20250313535A1, “ALPHA 4 BETA 7 INTEGRIN MODULATORS AND USES THEREOF” (DICE MOLECULES SV, INC., priority 2022, published 2025).

α4β1 integrin, sequence (P13612 34-1032): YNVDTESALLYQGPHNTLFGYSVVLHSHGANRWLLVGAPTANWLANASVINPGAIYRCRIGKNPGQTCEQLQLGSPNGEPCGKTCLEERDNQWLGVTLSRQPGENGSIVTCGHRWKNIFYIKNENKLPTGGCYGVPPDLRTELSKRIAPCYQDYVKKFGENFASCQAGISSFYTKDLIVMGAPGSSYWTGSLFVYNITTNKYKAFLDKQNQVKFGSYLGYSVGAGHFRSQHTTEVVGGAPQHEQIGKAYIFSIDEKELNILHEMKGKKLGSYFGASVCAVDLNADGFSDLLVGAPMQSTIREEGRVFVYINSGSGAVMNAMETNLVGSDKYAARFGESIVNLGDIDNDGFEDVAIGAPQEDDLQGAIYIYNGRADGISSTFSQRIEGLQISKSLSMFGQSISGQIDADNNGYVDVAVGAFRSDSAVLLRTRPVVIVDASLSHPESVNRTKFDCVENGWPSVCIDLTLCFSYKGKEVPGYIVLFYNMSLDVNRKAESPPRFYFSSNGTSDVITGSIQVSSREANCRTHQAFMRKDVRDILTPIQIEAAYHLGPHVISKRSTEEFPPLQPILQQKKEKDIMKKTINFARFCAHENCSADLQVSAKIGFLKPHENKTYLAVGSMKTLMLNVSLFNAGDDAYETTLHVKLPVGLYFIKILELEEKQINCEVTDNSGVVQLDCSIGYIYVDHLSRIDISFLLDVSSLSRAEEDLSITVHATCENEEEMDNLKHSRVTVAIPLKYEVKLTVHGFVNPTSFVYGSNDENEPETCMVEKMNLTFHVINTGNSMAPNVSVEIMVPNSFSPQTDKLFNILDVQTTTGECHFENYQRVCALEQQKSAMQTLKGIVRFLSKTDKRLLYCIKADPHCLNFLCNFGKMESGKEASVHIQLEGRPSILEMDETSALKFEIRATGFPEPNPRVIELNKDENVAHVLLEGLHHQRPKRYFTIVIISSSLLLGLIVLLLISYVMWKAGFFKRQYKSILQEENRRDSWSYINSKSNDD
α4β1 integrin, sequence (P05556 21-798): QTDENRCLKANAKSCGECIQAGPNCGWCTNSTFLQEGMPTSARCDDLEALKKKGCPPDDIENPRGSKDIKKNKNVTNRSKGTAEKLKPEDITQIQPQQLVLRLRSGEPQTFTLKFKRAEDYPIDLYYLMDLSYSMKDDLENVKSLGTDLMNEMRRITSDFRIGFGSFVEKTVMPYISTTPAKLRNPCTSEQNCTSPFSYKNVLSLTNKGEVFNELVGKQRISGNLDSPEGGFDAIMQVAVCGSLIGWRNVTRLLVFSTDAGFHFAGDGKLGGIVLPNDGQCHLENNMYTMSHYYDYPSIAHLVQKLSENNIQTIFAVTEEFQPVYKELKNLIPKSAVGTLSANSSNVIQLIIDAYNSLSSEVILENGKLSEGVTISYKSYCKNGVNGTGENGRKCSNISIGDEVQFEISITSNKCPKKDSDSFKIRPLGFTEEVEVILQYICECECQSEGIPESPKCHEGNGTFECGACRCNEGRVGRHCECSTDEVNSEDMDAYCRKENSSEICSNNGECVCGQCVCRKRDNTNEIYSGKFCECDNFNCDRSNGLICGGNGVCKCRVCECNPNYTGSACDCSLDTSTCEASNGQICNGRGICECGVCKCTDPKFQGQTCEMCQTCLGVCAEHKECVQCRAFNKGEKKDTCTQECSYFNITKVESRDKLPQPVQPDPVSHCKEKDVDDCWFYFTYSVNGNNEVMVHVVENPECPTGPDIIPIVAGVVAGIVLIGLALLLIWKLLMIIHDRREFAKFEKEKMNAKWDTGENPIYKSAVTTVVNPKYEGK

The first experiment has as its target α4β1 integrin (Homo sapiens (Human), UniProt P05556+P13612). As to the kind of experiment: Integrin Adhesion Assay: Protocol 5 (VCAM-coated plate, RPMI-8866 cells with stable LOF mutation of the ITGB7 gene). Format: cell-based. Particulars: Protocol 5; RPMI-8866 cells with LOF mutation of ITGB7, VCAM; read-out: Mean IC50 α4β1 KO. The procedure: Integrin Adhesion Assay Using Genetically Modified Cells Generating Stable Cell Lines with ITGB1 or ITGB7 Knockout (Protocol 4 and Protocol 5)
To obtain subclones of the RPMI-8866 cell line (Sigma-Aldrich, St. Louis, MO) that were individually deficient in either integrin β1 or integrin β 7, CRISPR/Cas9 technology was employed (PMID: 30108345). Specifically, a Neon™ Transfection System System 10 μL Kit and the Neon™ Transfection device (both from ThermoFisher Scientific) were used.
The protocol was performed following the manufacturer instructions, described in https://www.thermofisher.com/document-connect/document-connect.html?url=https % 3A%2F%2F assets.thermofisher.com%2FTFS-Assets%2FLSG%2Fmanuals%2FMAN0017066_TrueCut Cas9_Protein_v2_UG.pdf, which is incorporated by reference herein in its entirety.
RPMI-8866 cells were transferred to a flask the day before transfection, at a confluence of 5×10^5 cells/mL. The cells were washed with PBS and resuspended in buffer R (Neon™ Transfection System, Invitrogen) to 2×10^5 cells/10 uL for each reaction. The TrueCut™ HiFi Cas9 Protein (1250 ng per reaction) was mixed with TrueGuide™ sgRNA (7.5 pmoles each/pool of 3 sequences, table 1) (ThermoFisher Scientific). This mix was combined with the RPMI-8866 cells and electroporated on the Neon system at 1700V/20 ms/1 pulse. Transfected cells were allowed to recover in 500 μL pre-warmed cRMPI media (RPMI-1640 media with 10% FBS, 100 U/ml Penicillin-Streptomycin) at 37° C., 5% CO2 for 24 hours. At that time, an extra 500 μL of pre-warmed cRMPI media was added, and cells were incubated for another 24 hours.
For flow cytometry analysis, 100 μL of the transfected cells were collected and stained with anti-itga4 (Clone: 9F10, PE, BD Pharmingen™), anti-itgb 1 (Clone: (TS2/16), Super Bright 436, eBioscience), anti-itgb7 (Clone: FIB504, Brilliant Violet 650, BD Pharmingen™) and viability dye (LIVE/DEAD™ Fixable Green Dead Cell Stain, Invitrogen™). An Attune NxT Flow Cytometer was used to analyze the CRISPR-transfected cells. The flow cytometry results were analyzed using FlowJo™ v10.8.1 Software (BD Life Sciences). Fluorescence minus one (FMO) controls were used to select appropriate gates for data analysis.
To generate an individual clones of cells deficient in either ITGB7 or ITGB1 by limiting dilution assay, the transfected cells were resuspended at 5 cells/mL and seeded in 384 well plates. Outgrowth of clones was monitored using a microscope, and 24 clones were transferred for expansion. Expression of either integrin was verified by flow cytometry in each of the clones. One clone of each integrin b7 or the integrin b1 knockout was chosen, expanded and aliquots were frozen in vapor phase liquid nitrogen.
Integrin Adhesion Assay: Protocol 5
VCAM (R&D Systems, 0.1 ug) was diluted in 50 μL PBS, added to each well of an opaque ELISA plate (Thermo), and incubated overnight at 4° C. Coated plates were washed once with PBS and then blocked with 200 μL of assay buffer (10 mM HEPES, 150 mM NaCl, 1 mM MnCl2, 0.1 mM CaCl2), 1% BSA) for 1 hour at 37° C. and 5% CO2. After incubation, buffer was aspirated from the plates and 50 μL of fresh assay buffer was added. Compounds were added by compounds dispenser (Tecan) and DMSO concentration was normalized to 1% across each plate. 50 μL of RPMI-8866 cells with a stable LOF mutation of the ITGB7 gene (2×10^6 per mL) were added to each well and the plates were incubated for 1 hour at 37° C. and 5% CO2. After incubation, plates were allowed to cool to RT for 10 minutes before being washed four times in assay buffer by an automated plate washer (BioTek). After washing, 100 μL of a 1:1 mixture of assay buffer and CellTiter GLO 2.0 reagent (Promega) were added to each well. Plates were mixed for 2 minutes at 1000 rpm and then allowed to incubate an additional 10 minutes before reading out luminescence on a Tecan Spark plate reader. […]
As to `COc1cccc(CN2CCCCC2)c1-c1cccc2c(C[C@H](NC(=O)c3c(F)cccc3-c3ccccc3)C(=O)O)cccc12` [Compound 693], the IC50 is above 1000 nM.

For the compound `Cn1c(=O)c(-c2cccc3c(C[C@H](NC(=O)c4c(F)cccc4F)C(=O)O)cccc23)c(C(F)(F)F)c2cc(CCN3CC(F)C3)ccc21` [Compound 715], the IC50 is above 1000 nM.

For the compound `O=C(O)[C@H](Cc1cccc2c(-c3c(CN4CCCCC4)ccc4cccnc34)cccc12)NC(=O)C1(C(F)(F)F)CCN(CC(F)(F)F)CC1` [Compound 767], the IC50 was above 1000 nM.

On to `COc1c(-c2cccc3c(C[C@H](NC(=O)C4(C(F)(F)F)CCN(CC(F)(F)F)CC4)C(=O)O)cccc23)cc(CN2CCCCC2)cc1C(F)(F)F` [Compound 769], for which the IC50 is above 1000 nM. Still for that read-out and setting: next, `O=C(O)[C@H](Cc1cccc2c(-c3cccc4ocnc34)cccc12)NC(=O)C1(C(F)(F)F)CCN(CC(F)(F)F)CC1` [Compound 770]: above 1000 nM; `O=C(O)[C@H](Cc1cccc2c(-c3cccc4ncoc34)cccc12)NC(=O)C1(C(F)(F)F)CCN(CC(F)(F)F)CC1` [Compound 771]: above 1000 nM.

Take `O=C(O)[C@H](Cc1cccc2c(-c3cccc4cnoc34)cccc12)NC(=O)C1(C(F)(F)F)CCN(CC(F)(F)F)CC1` [Compound 772]: the IC50 is above 1000 nM.

For the compound `COc1cc2ccccc2cc1-c1cccc2c(C[C@H](NC(=O)C3(C(F)(F)F)CCN(CC(F)(F)F)CC3)C(=O)O)cccc12` [Compound 775], the IC50 was above 1000 nM.

For `COc1c(-c2cccc3c(C[C@H](NC(=O)C4(C(F)(F)F)CCN(CC(F)(F)F)CC4)C(=O)O)cccc23)ccc2ccccc12` [Compound 776], the IC50 is above 1000 nM.

`COc1ccc(CCN2CCCC(F)C2)c(OC)c1-c1cccc2c(C[C@H](NC(=O)C3(C(F)(F)F)CCN(CC(F)(F)F)CC3)C(=O)O)cccc12` (stereo partly shown) [Compound 826]: the IC50 was in the range of 100 to 1000 nM. Same read-out and setting: next, `CN(Cc1cnc(-c2cccc3c(C[C@H](NC(=O)C4(C(F)(F)F)CCN(CC(F)(F)F)CC4)C(=O)O)cccc23)c2ccccc12)CC(F)(F)F` [Compound 895]: above 1000 nM; `CN(Cc1cnc(-c2cccc3c(C[C@H](NC(=O)C4(C(F)(F)F)CCN(CC(F)F)CC4)C(=O)O)cccc23)c2ccccc12)CC(F)(F)F` [Compound 923]: above 1000 nM; `CC[C@@H]1CCCCN1Cc1cnc(-c2cccc3c(C[C@H](NC(=O)C4(C(F)(F)F)CCN(CC(F)F)CC4)C(=O)O)cccc23)c2ccccc12` [Compound 932]: 100 to 1000 nM. Same read-out and setting: the figure for `COc1ccc(CN2CCC(C(F)(F)F)CC2)cc1-c1cccc2c(C[C@H](NC(=O)C3(C(F)(F)F)CCN(CC(F)F)CC3)C(=O)O)cccc12` [Compound 939] is 100 to 1000 nM. Still for that read-out and setting: next, `Cc1cccc(F)c1C(=O)N[C@@H](Cc1cccc2c(-c3ccccc3OCCN3CCCCC3)cccc12)C(=O)O` [Compound 1007]: above 1000 nM; `Cc1cccc(F)c1C(=O)N[C@@H](Cc1cccc2c(-c3ncc(CN4CCC(F)(F)CC4)c4ccccc34)cccc12)C(=O)O` [Compound 1031]: above 1000 nM; `Cc1cccc(F)c1C(=O)N[C@@H](Cc1cccc2c(-c3c(C(F)(F)F)c4cc(CN5CCC(F)(F)CC5)ccc4n(C)c3=O)cccc12)C(=O)O` [Compound 1032]: above 1000 nM.

Still in this experiment, the particulars now being: RPMI-8866 cells with stable LOF mutation of the ITGB7 gene; read-out: Mean IC50 α4β1 KO^b.
On to `CN(C)Cc1cccc2c(-c3cccc4c(C[C@H](NC(=O)c5c(F)cc(N6CCOC[C@@H]6C(F)(F)F)cc5CN5CCC(N(C)C)CC5)C(=O)O)cccc34)nccc12` [Compound 434], for which the IC50 was above 1000 nM.

For the compound `Cn1c(=O)c(-c2cccc3c(C[C@H](NC(=O)C4(C(F)(F)F)CCN([C@H]5CCOC5)CC4)C(=O)O)cccc23)c(C(F)(F)F)c2ccccc21` [Compound 458], the IC50 is 100 to 1000 nM.
